Earlier results, collected in publication PMC7155743 (The journal of physical chemistry. B, 2019).
Entries after “also recorded” stand apart in the source; their conditions may differ.

Columns and labels:
[1] = aqueous solution
[2] = not given; remark: listed apart in the source

Substance	appearance of peptide in water at 1 mg/mL	aggregation state by DOSY [1]	solubility (qualitative) [2]	fibrillization after incubation in water for 3 h ([2]; water, 3 h)
D2Q10K2 [NDQ10]	clear solutions	predominately monomeric; also recorded: predominantly monomeric	–	–
D2Q10K2 [DQ10]	clear solutions	predominately monomeric; also recorded: predominantly monomeric	–	–
K2Q9PGQ4AQ4PGQ9PGQ9K2 [PGQ9A]	–	–	insoluble	–
K2Q9PGQ4AQ4PGQ9PGQ9K2 [NDPGQ9A]	–	–	–	do not observe signs of NDPGQ9A fibrillization
